The results in this text go back to patent US11518763B2 (SCOHIA PHARMA, INC., priority 2018, dated 2022).

Read-outs that look alike come from different tables or passages of the source.

The target of assay [1] is T1, binding between NRF2 and KEAP1 (biotinylated human KEAP1 protein (Kelch domain), TAMRA-labeled NRF2 peptide) (Homo sapiens, UniProt Q14145).
T1 construct: biotinylated human KEAP1 protein (Kelch domain); biotin (biotinylated)
In words: Measurement of activity of inhibiting NRF2 binding (NRF2-KEAP1 TR-FRET). The following applies: inhibition rate relative to control at 100 nM test compound, TR-FRET, 60 min at room temperature; for NRF2 binding inhibitory activity (at 100 nM): 0.1 µM; for inhibition at 0.1 µM: read-out: NRF2 binding inhibitory activity (at 100 nM). The protocol: Test Example 1: Measurement of Activity of Inhibiting NRF2 Binding
The inhibitory activity of test compounds against the binding between NRF2 and KEAP1 was measured by Time Resolved Fluorescence Resonance Energy Transfer (TR-FRET) method. Into a 384 well plate, 2 μL of a compound, 2 μL of 2 nM solution of biotinylated human KEAP1 protein (Kelch domain), 2 μL of 14 nM solution of TAMRA-labeled NRF2 peptide (TAMRA-Abu(4)-VWYTDIRMRDWM-OH), and 2 μL of 2 nM solution of Tb-labeled streptavidin, all solutions diluted with assay buffer (25 mM HEPES, pH7.5, 150 mM NaCl, 0.01% Tween-20), were added. For some wells, the KEAP1 protein was not added to define control wells. The plate was incubated at room temperature for 60 minutes, and time-resolved fluorescence was measured with a plate reader Envision (manufactured by PerkinElmer). The inhibitory activity for each compound at a compound concentration of 100 nM were calculated as a relative activity value by setting the fluorescence intensity of control wells to which the KEAP1 protein was not added as 100% inhibition, and the fluorescence intensity of wells to which no compound was added as 0%.
The measurement results according to the method described above (inhibition rate of signal value relative to control at 100 nM of test compound) are shown in Table 3.

In the next assay the test system is Nqo1 mRNA. In words: Expression of NRF2-downstream gene Nqo1 mRNA in rat kidney and liver after oral administration. The conditions noted are these: 17 h, male SD rats, 3 mg/kg oral, about 17 hours after administration, read-out: Nqo1 mRNA expression (fold change vs vehicle). In kind it is in vivo. The protocol: Test Example 2: Activity of Compound on Expression of NRF2-Downstream Gene in Rat Kidney and Liver
For the NRF2-downstream gene, Nqol mRNA was examined in regard to the expression level in kidney. Compounds were prepared into 0.5% methylcellulose (MC, METOLOSE, Shin-Etsu Chemical Co., Ltd.) suspensions, and were orally administered to male SD rats (CLEA Japan, Inc.) in a dose of 5 mL/kg. About 17 hours after the administration, the rats were euthanized under anesthesia, and their kidneys and livers were collected. By using an extraction kit, QIAsymphony RNA kit (QIAGEN, catalog number 931636) or RNeasy 96 Kit (QIAGEN, catalog number 74182), total RNA was extracted. From the total RNA thus obtained, cDNA was produced by using a cDNA synthesis kit, Superscript IV VIVO Master Mix (Thermo Fisher Scientific, catalog number 11754-250). By using the cDNA thus obtained with Taqman Fast Advanced Master Mix (Thermo Fisher Scientific, catalog number 4444557) or Platinum Quantitative PCR SuperMix (Thermo Fisher Scientific, catalog number 11743-500), and primers and a probe, the sequences of SEQ ID NO:1. SEQ ID NO:2, and SEQ ID NO: 3, which are shown in Table 4, real-time quantitative PCR was conducted with 7900HT Fast Real-Time PCR Systems or ViiA7 Fast Real-Time PCR Systems (Applied Biosystems). The expression level of Nqol mRNA in each organ of the rat to which the vehicle, 0.5% MC solution, was administered is defined as 1, and the variation is shown in Table 5.

T1 sequence (Q14145 321-609 limits assumed): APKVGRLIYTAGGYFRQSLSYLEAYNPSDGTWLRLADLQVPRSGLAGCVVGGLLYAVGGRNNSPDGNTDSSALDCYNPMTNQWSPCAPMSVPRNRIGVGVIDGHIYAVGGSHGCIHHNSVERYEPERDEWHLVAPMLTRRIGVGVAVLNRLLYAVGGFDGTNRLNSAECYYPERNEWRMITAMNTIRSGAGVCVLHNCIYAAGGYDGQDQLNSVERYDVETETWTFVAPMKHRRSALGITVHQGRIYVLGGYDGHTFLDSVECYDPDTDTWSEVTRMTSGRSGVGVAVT

Consider `Cc1c2ccc3c1nnn3CCCCCc1ccc(cc1)C(=O)N1CCc3ccc(cc3C1)C2C(C)(C)C(=O)O` (centres unmarked) [Example 62, 2-methyl-2-[32-methyl-20-oxo-8,9,10,21-tetrazahexacyclo[19.5.3.2^16,19.1^3,7.0^6,10.0^24,28]dotriaconta-1(27),3(32),4,6,8,16(31),17,19(30),24(28),25-decaen-2-yl]propanoic acid], for which the “NRF2 binding inhibitory activity (at 100 nM)” value in assay [1] is on record as 100%. Besides, the fold induction at 3 mg/kg with Nqo1 mRNA (Kidney) stood at 6.9.

`Cc1c2ccc3c1nnn3CCCOCc1ccc(cc1)C(=O)N1CCc3ccc(cc3C1)C2CC(=O)O` (centres unmarked) [Example 25, [32-Methyl-20-oxo-14-oxa-8,9,10,21-tetraazahexacyclo[19.5.3.2^16,19.1^3,7.0^6,10.0^24,28]dotriaconta-1(26),3(32),4,6,8,16,18,24,27,30-decaen-2-yl]acetic acid]: in assay [1], the inhibition at 0.1 µM amounted to 100%. Also, the figures for the fold induction at 3 mg/kg with Nqo1 mRNA (Kidney) and in the assay on Nqo1 mRNA (Liver) were 6.5 and 22.2, respectively.

`Cc1c2ccc3c1nnn3CCCCCc1ccc(cc1)C(=O)N1CCc3ccc(cc3C1)C2CC(=O)O` (centres unmarked) [Example 11, [32-Methyl-20-oxo-8,9,10,21-tetraazahexacyclo[19.5.3.2^16,19.1^3,7.0^6,10.0^24,28]dotriaconta-1(26),3(32),4,6,8,16,18,24,27,30-decaen-2-yl]acetic acid]: the inhibition at 0.1 µM in assay [1] worked out at 100%. Besides, the fold induction at 3 mg/kg in the assay with Nqo1 mRNA (Kidney) amounted to 8.

Regarding `Cc1c2ccc3c1nnn3CCCCCc1ccc(c(Cl)c1)C(=O)N1CCc3ccc(cc3C1)C2CC(=O)O` (racemic) [Example 9, [18-Chloro-32-methyl-20-oxo-8,9,10,21-tetraazahexacyclo[19.5.3.2^16,19.1^3,7.0^6,10.0^24,28]dotriaconta-1(26),3(32),4,6,8,16,18,24,27,30-decaen-2-yl]acetic acid], the inhibition at 0.1 µM in assay [1] is 100%. The fold induction at 3 mg/kg with Nqo1 mRNA (Kidney) stood at 5.5.

Consider `Cc1c2ccc3c1nnn3CCCOCc1cc(Cl)c(c(Cl)c1)C(=O)N1CCc3ccc(cc3C1)C2C(C)(C)C(=O)O` (centres unmarked) [Example 60, 2-[18,30-dichloro-32-methyl-20-oxo-14-oxa-8,9,10,21-tetrazahexacyclo[19.5.3.2^16-19.1^3,7.0^6,10.0^24,28]dotriaconta-1(27),3(32),4,6,8,16,18,24(28),25,30-decaen-2-yl]-2-methylpropanoic acid], for which the inhibition at 0.1 µM in assay [1] was 100%. Also, in the assay with Nqo1 mRNA (Kidney), the fold induction at 3 mg/kg was 2.9.

As to `Cc1c2ccc3c1nnn3CCCCCc1ccc(c3c1OCC3)C(=O)N1CCc3ccc(cc3C1)C2CC(=O)O` (racemic) [Example 4, [33-Methyl-2-oxo-7-oxa-1,15,16,17-tetraazaheptacyclo[22.5.3.2^3,9.1^18,22.0^4,8.0^15,19.0^27,31]pentatriaconta-3,8,16,18(33),19,21,24,26,31,34-decaen-23-yl]acetic acid], the inhibition at 0.1 µM in assay [1] stood at 100%. Further, the fold induction at 3 mg/kg in the assay on Nqo1 mRNA (Kidney) was 6.8.

As for `Cc1c2ccc3c1nnn3CCCCCc1ccc(c(F)c1)C(=O)N1CCc3ccc(cc3C1)C2CC(=O)O` (racemic) [Example 10, [18-Fluoro-32-methyl-20-oxo-8,9,10,21-tetraazahexacyclo[19.5.3.2^16,19.1^3,7.0^6,10.0^24,28]dotriaconta-1(26),3(32),4,6,8,16,18,24,27,30-decaen-2-yl]acetic acid], in assay [1], the inhibition at 0.1 µM worked out at 100%. The fold induction at 3 mg/kg with Nqo1 mRNA (Kidney) is 5.9.

As to `Cc1c2ccc3c1nnn3CCCCCc1ccc(c3c1OC(C)(C)C3)C(=O)N1CCc3ccc(cc3C1)C2CC(=O)O` (racemic) [Example 5, [6,6,33-Trimethyl-2-oxo-7-oxa-1,15,16,17-tetraazaheptacyclo[22.5.3.2^3,9.1^18,22.0^4,8.0^15,19.0^27,31]pentatriaconta-3,8,16,18(33),19,21,24,26,31,34-decaen-23-yl]acetic acid], in assay [1], the inhibition at 0.1 µM was 100%. In addition, the fold induction at 3 mg/kg with Nqo1 mRNA (Kidney) was 3.3.

`Cc1c2ccc3c1nnn3CCCCCc1ccc(c3c1CCO3)C(=O)N1CCc3ccc(cc3C1)C2CC(=O)O` (racemic) [Example 7, [33-Methyl-2-oxo-5-oxa-1,15,16,17-tetraazaheptacyclo[22.5.3.2^3,9.1^18,22.0^4,8.0^15,19.0^27,31]pentatriaconta-3,8,16,18(33),19,21,24,26,31,34-decaen-23-yl]acetic acid]: the inhibition at 0.1 µM in assay [1] is 100%. Moreover, the fold induction at 3 mg/kg in the assay on Nqo1 mRNA (Kidney) was 4.3.

Turning to `Cc1c2ccc3c1nnn3CCCOCc1ccc(cc1)C(=O)N1CCc3ccc(cc3C1)C2C(C)(C)C(=O)O` (centres unmarked) [Example 55, 2-methyl-2-[32-methyl-20-oxo-14-oxa-8,9,10,21-tetrazahexacyclo[19.5.3.2^16,19.1^3,7.0^6,10.0^24,28]dotriaconta-1(27),3(32),4,6,8,16,18,24(28),25,30-decaen-2-yl]propanoic acid], the inhibition at 0.1 µM in assay [1] amounted to 100%. In addition, the fold induction at 3 mg/kg in the assay on Nqo1 mRNA (Kidney) is 6.3.

Turning to `Cc1c2ccc3c1nnn3CCOCCc1ccc(cc1)C(=O)N1CCc3ccc(cc3C1)C2CC(=O)O` (racemic) [Example 29, [32-Methyl-20-oxo-13-oxa-8,9,10,21-tetraazahexacyclo[19.5.3.2^16,19.1^3,7.0^6,10.0^24,28]dotriaconta-1(26),3(32),4,6,8,16,18,24,27,30-decaen-2-yl]acetic acid], the inhibition at 0.1 µM in assay [1] came to 100%. In addition, the fold induction at 3 mg/kg in the assay with Nqo1 mRNA (Kidney) amounted to 5.9.

With `Cc1cc2cc(C)c1C(=O)N1CCc3ccc(cc3C1)C(C(C)(C)C(=O)O)c1ccc3c(nnn3CCCOC2)c1C` (centres unmarked) [Example 58, 2-methyl-2-[18,30,32-trimethyl-20-oxo-14-oxa-8,9,10,21-tetrazahexacyclo[19.5.3.2^16,19.1^3,7.0^6,10.0^24,28]dotriaconta-1(27),3(32),4,6,8,16(31),17,19(30),24(28),25-decaen-2-yl]propanoic acid], the inhibition at 0.1 µM in assay [1] came out at 100%. Further, the fold induction at 3 mg/kg with Nqo1 mRNA (Kidney) stood at 4.8.

In the case of `CCc1cc2ccc1C(=O)N1CCc3ccc(cc3C1)C(CC(=O)O)c1ccc3c(nnn3CCCCC2)c1C` (racemic) [Example 3, [18-Ethyl-32-methyl-20-oxo-8,9,10,21-tetraazahexacyclo[19.5.3.2^16,19.1^3,7.0^6,10.0^24,28]dotriaconta-1(26),3(32),4,6,8,16,18,24,27,30-decaen-2-yl]acetic acid], in assay [1], the inhibition at 0.1 µM came to 100%. For the same compound, the fold induction at 3 mg/kg in the assay on Nqo1 mRNA (Kidney) turned out to be 4.7.

Take `Cc1c2ccc3c1nnn3CCCCCCc1ccc(cc1)C(=O)N1CCc3ccc(cc3C1)C2CC(=O)O` (racemic) [Example 15, [33-Methyl-21-oxo-8,9,10,22-tetraazahexacyclo[20.5.3.2^17,20.1^3,7.0^6,10.0^25,29]tritriaconta-1(27),3(33),4,6,8,17,19,25,28,31-decaen-2-yl]acetic acid]: the inhibition at 0.1 µM in assay [1] is 100%.

Regarding `Cc1c2ccc3c1nnn3CCCOCc1ccc(cc1)C(=O)N1CCc3ccc(cc3C1)C2CC(=O)O` (centres unmarked) [Example 26, [32-Methyl-20-oxo-14-oxa-8,9,10,21-tetraazahexacyclo[19.5.3.2^16,19.1^3,7.0^6,10.0^24,28]dotriaconta-1(26),3(32),4,6,8,16,18,24,27,30-decaen-2-yl]acetic acid], the “NRF2 binding inhibitory activity (at 100 nM)” value in assay [1] is recorded as 99%.
